Measured values published in patent US7041837B2, “Heterocyclic compounds having hypolipidemic, hypocholesteremic activities process for their preparation and pharmaceutical compositions containing them and their use in medicine” (Cadilla Healthcare Limited, priority 2001, dated 2006).

Tested on: Swiss albino mice
Experiment: Serum triglyceride and total cholesterol lowering activity in Swiss albino mice
Type: in vivo
Settings: male Swiss albino mice, 3 mg/kg/day orally for 6 days, 1 hour after dosing on 6th day
Method: i) Serum Triglyceride and Total Cholesterol Lowering Activity in Swiss Albino Mice:
Male Swiss albino mice (SAM) were bred in Zydus animal house. All these animals were maintained under 12 hour light and dark cycle at 25±1° C. Animals were given standard laboratory chow (NIN, Hyderabad, India) and water ad libitum. SAM of 20–30 g body weight range were used.
The test compounds were administered orally to Swiss albino mice at 0.001 to 50 mg/kg/day dose for 6 days. The compound was administered after suspending it in 0.25% CMC or dissolving it in water, when compound is water-soluble. Control mice were treated with vehicle (0.25% of Carboxymethylcellulose; dose 10 ml/kg).
The blood samples were collected on 0th day and in fed state 1 hour after drug administration on 6th day of the treatment. The blood was collected in non heparinised capillary and the serum was analyzed for triglyceride and total cholesterol (Wieland, O. Methods of Enzymatic analysis. Bergermeyer, H., O., Ed., 1963. 211–214; Trinder, P. Ann. Clin. Biochem. 1969. 6:24–27). Measurement of serum triglyceride and total cholesterol was done using commercial kits (Zydus-Cadila, Pathline, Ahmedabad, India).
Percentage reduction in triglycerides/total cholesterol were calculated according to the formula:
[formula] • OC=Zero day control group value OT=Zero day treated group value • TC=Test day control group TT=Test day treated group

**Q.** How did the “% Triglyceride lowering” value turn out when CCOC(Cc1ccc2cc(OCCn3c(C)ccc3-c3ccc(OC)cc3)ccc2c1)C(=O)OC (racemic) [Example 76, (R/S) Methyl-2-ethoxy-3[6-[2-[2-(4-methoxyphenyl)-5-methyl-pyrrol-1-yl]ethoxy]napthalen-2yl]propanoate] was run?
**A.** The value was 26%.
